We go through 37 compounds from patent US9434743B2, “Indazole derivatives” (TAKEDA PHARMACEUTICAL COMPANY LIMITED, priority 2012, dated 2016).

The term IC50 denotes the concentration at which inhibition is half-maximal. Higher therefore signals a need for much substance.

Test [1] has as its target T1, human MetAP2 enzyme (Homo sapiens, UniProt P50579). Put plainly: MetAP2 enzyme assay, enzyme complexed with manganese ions. To be noted: MetAP2 Mn pIC50, MetAP2 enzyme complexed with manganese ions; Met-AMC substrate at Km.
Procedure: DNA encoding the full-length sequence of human MetAP2 enzyme is amplified by PCR and cloned into a pFastBac expression vector (Invitrogen). Recombinant baculovirus incorporating the MetAP2 construct is generated by transposition using the Bac-to-Bac system (Invitrogen). The expression of recombinant protein is carried out by infection of Spodoptera frugiperda Sf9 cells (Invitrogen) in 5 L Wave Bioreactors (Wave Biotech). Recombinant protein is isolated from cellular extracts by binding to an SP Hitrap Fast Flow or SP Sepharose (Sigma) column, and the protein is eluted using a NaCl gradient. Partially purified extracts of MetAP2 are further purified by an AKTA FPLC over a Superdex-200 column (GE). The purity of MetAP2 protein is determined on denaturing SDS-PAGE gel.
The results for each well are expressed as percent inhibition and calculated using the equation:
Test [2] addresses T1, human MetAP2 enzyme. Briefly: MetAP2 enzyme assay, enzyme complexed with cobalt ions. The conditions noted are these: MetAP2 Co pIC50, MetAP2 enzyme complexed with cobalt ions; Met-AMC substrate at Km.

T1 sequence (P50579 whole entry): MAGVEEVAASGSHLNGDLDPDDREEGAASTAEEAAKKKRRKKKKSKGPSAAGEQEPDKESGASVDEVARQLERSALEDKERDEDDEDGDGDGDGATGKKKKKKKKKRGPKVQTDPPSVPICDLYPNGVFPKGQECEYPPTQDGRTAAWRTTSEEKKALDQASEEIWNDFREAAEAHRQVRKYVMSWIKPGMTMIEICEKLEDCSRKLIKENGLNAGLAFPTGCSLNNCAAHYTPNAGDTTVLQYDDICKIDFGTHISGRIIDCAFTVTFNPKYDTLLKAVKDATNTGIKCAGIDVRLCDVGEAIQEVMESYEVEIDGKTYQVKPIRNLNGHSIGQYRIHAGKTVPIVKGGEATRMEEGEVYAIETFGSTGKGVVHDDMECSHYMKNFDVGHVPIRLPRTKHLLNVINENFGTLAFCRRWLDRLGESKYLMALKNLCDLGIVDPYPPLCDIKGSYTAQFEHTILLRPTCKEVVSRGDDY

For `O=S(=O)(CCO)c1ccccc1-c1cc(C(F)(F)F)cc2[nH]ncc12` [Example 182, 2-(2-(6-(trifluoromethyl)-1H-indazol-4-yl)phenylsulfonyl)ethanol], the half-inhibitory concentration (IC50) is 25.1 nM in test [1] and 794 nM in test [2].
On the same counts, the results for `CN(C)S(=O)(=O)c1ccccc1-c1cc(C(F)(F)F)cc2[nH]ncc12` [Example 183, N,N-dimethyl-2-(6-(trifluoromethyl)-1H-indazol-4-yl)benzenesulfonamide] are 39.8 nM and 316 nM.
On the same counts, the results for `COc1ccc(N)c(-c2cc(C(F)(F)F)cc3[nH]ncc23)n1` [Example 184, 6-methoxy-2-(6-(trifluoromethyl)-1H-indazol-4-yl)pyridin-3-amine] are 20 nM and 501 nM.
In the case of `COc1ccc(CO)cc1-c1cc(C(F)(F)F)cc2[nH]ncc12` [Example 185, (4-methoxy-3-(6-(trifluoromethyl)-1H-indazol-4-yl)phenyl)methanol], the 50% inhibitory concentration (IC50) in test [1] was 3.98 nM; in test [2], 15.8 nM.
Regarding `Cc1cc(S(N)(=O)=O)ccc1-c1cc(C(F)(F)F)cc2[nH]ncc12` [Example 186, 3-methyl-4-(6-(trifluoromethyl)-1H-indazol-4-yl)benzenesulfonamide], the 50% inhibitory concentration (IC50) is 7.94 nM in test [1] and 20 nM in test [2].
On the same counts, the results for `COc1ncc(N)cc1-c1cc(C(F)(F)F)cc2[nH]ncc12` [Example 187, 6-methoxy-5-(6-(trifluoromethyl)-1H-indazol-4-yl)pyridin-3-amine] are 7.94 nM and 79.4 nM.
On the same counts, the results for `Cc1ccc(N)c(-c2cc(C(F)(F)F)cc3[nH]ncc23)n1` [Example 188, 6-methyl-2-(6-(trifluoromethyl)-1H-indazol-4-yl)pyridin-3-amine] are 79.4 nM and 1580 nM.
In the case of `COc1ccc(-c2cc(C(F)(F)F)cc3[nH]ncc23)c(CO)c1` [Example 189, (5-methoxy-2-(6-(trifluoromethyl)-1H-indazol-4-yl)phenyl)methanol], the results for the half-inhibitory concentration (IC50) in test [1] and in test [2] were 5.01 nM and 50.1 nM, respectively.
On the same counts, the results for `Cc1nc(N)nc(C)c1-c1cc(C(F)(F)F)cc2[nH]ncc12` [Example 190, 4,6-dimethyl-5-(6-(trifluoromethyl)-1H-indazol-4-yl)pyrimidin-2-amine] are 39.8 nM and 200 nM.
For `Nc1nc(Cl)ncc1-c1cc(C(F)(F)F)cc2[nH]ncc12` [Example 191, 2-chloro-5-(6-(trifluoromethyl)-1H-indazol-4-yl)pyrimidin-4-amine], the figures for the IC50 in test [1] and in test [2] were 25.1 nM and 794 nM, respectively.
Consider `O=C(O)c1ncncc1-c1cc(C(F)(F)F)cc2[nH]ncc12` [Example 192, 5-(6-(trifluoromethyl)-1H-indazol-4-yl)pyrimidine-4-carboxylic acid], for which the concentration for half-maximal inhibition (IC50) is 100 nM in test [1] and 5010 nM in test [2].
On the same counts, the results for `Cc1cnc(N)c(-c2cc(C(F)(F)F)cc3[nH]ncc23)c1` [Example 193, 5-methyl-3-(6-(trifluoromethyl)-1H-indazol-4-yl)pyridin-2-amine] are 6.31 nM and 63.1 nM.
Turning to `Nc1ncc(F)cc1-c1cc(C(F)(F)F)cc2[nH]ncc12` [Example 194, 5-fluoro-3-(6-(trifluoromethyl)-1H-indazol-4-yl)pyridin-2-amine], the 50% inhibitory concentration (IC50) in test [1] was 10 nM; in test [2] it was 158 nM.
Regarding `Cc1nc2[nH]cnc2cc1-c1cc(C(F)(F)F)cc2[nH]ncc12` [Example 195, 5-methyl-6-(6-(trifluoromethyl)-1H-indazol-4-yl)-3H-imidazo[4,5-b]pyridine], the IC50 is 6.31 nM in test [1] and 25.1 nM in test [2].
On the same counts, the results for `CNc1ncc(-c2cc(C(F)(F)F)cc3[nH]ncc23)cn1` [Example 196, N-methyl-5-(6-(trifluoromethyl)-1H-indazol-4-yl)pyrimidin-2-amine] are 6.31 nM and 63.1 nM.
Turning to `FC(F)(F)c1cc(-c2cnc(NC3CC3)nc2)c2cn[nH]c2c1` [Example 197, N-cyclopropyl-5-(6-(trifluoromethyl)-1H-indazol-4-yl)pyrimidin-2-amine], the IC50 in test [1] is 6.31 nM; in test [2], 63.1 nM.
On the same counts, the results for `N#Cc1ncc(-c2cc(C(F)(F)F)cc3[nH]ncc23)cn1` [Example 198, 5-(6-(trifluoromethyl)-1H-indazol-4-yl)pyrimidine-2-carbonitrile] are 12.6 nM and 631 nM.
The corresponding values for `CCN1C(=O)C(=O)c2cc(C)cc(-c3cc(C(F)(F)F)cc4[nH]ncc34)c21` [Example 199, 1-ethyl-5-methyl-7-(6-(trifluoromethyl)-1H-indazol-4-yl)indoline-2,3-dione] are 158 nM and 501 nM.
The corresponding values for `COc1ccc(C)nc1-c1cc(C(F)(F)F)cc2[nH]ncc12` [Example 200, 4-(3-methoxy-6-methylpyridin-2-yl)-6-(trifluoromethyl)-1H-indazole] are 50.1 nM and 316 nM.
On to `COc1ccc(-c2cc(C(F)(F)F)cc3[nH]ncc23)c(C(N)=O)n1` [Example 201, 6-methoxy-3-(6-(trifluoromethyl)-1H-indazol-4-yl)picolinamide], for which the 50% inhibitory concentration (IC50) in test [1] was 20 nM; in test [2], 794 nM.
With `O=C(Cn1cncn1)NCc1ccccc1-c1cc(C(F)(F)F)cc2[nH]ncc12` [Example 202, 2-(1H-1,2,4-triazol-1-yl)-N-(2-(6-(trifluoromethyl)-1H-indazol-4-yl)benzyl)acetamide], the concentration for half-maximal inhibition (IC50) is 25.1 nM in test [1] and 501 nM in test [2].
Take `NC(=O)c1cc(F)ccc1-c1cc(C(F)(F)F)cc2[nH]ncc12` [Example 203, 5-fluoro-2-(6-(trifluoromethyl)-1H-indazol-4-yl)benzamide]: the figures for the half-maximal inhibitory concentration (IC50) in test [1] and in test [2] were 79.4 nM and 3980 nM, respectively.
Consider `Cc1[nH]c(=O)[nH]c(=O)c1-c1cc(C(F)(F)F)cc2[nH]ncc12` [Example 204, 6-methyl-5-(6-(trifluoromethyl)-1H-indazol-4-yl)pyrimidine-2,4(1H,3H)-dione], for which the IC50 in test [1] is 15.8 nM; in test [2], 794 nM.
Turning to `NCC(O)c1ccccc1-c1cc(C(F)(F)F)cc2[nH]ncc12` (centres unmarked) [Example 205, 2-amino-1-(2-(6-(trifluoromethyl)-1H-indazol-4-yl)phenyl)ethanol], the half-maximal inhibitory concentration (IC50) in test [1] is 12.6 nM; in test [2] it was 1260 nM.
For the compound `C[C@H](CO)Nc1ncc(-c2cc(C(F)(F)F)cc3[nH]ncc23)cn1` [Example 206, (R)-2-(5-(6-(trifluoromethyl)-1H-indazol-4-yl)pyrimidin-2-ylamino)propan-1-ol], the IC50 in test [1] is 7.94 nM; in test [2], 79.4 nM.
The corresponding values for `C[C@@H](O)CNc1ncc(-c2cc(C(F)(F)F)cc3[nH]ncc23)cn1` [Example 207, (R)-1-(5-(6-(trifluoromethyl)-1H-indazol-4-yl)pyrimidin-2-ylamino)propan-2-ol] are 7.94 nM and 79.4 nM.
On the same counts, the results for `C[C@H](O)CNc1ncc(-c2cc(C(F)(F)F)cc3[nH]ncc23)cn1` [Example 208, (S)-1-(5-(6-(trifluoromethyl)-1H-indazol-4-yl)pyrimidin-2-ylamino)propan-2-ol] are 6.31 nM and 79.4 nM.
On to `OCCNc1ncc(-c2cc(C(F)(F)F)cc3[nH]ncc23)cn1` [Example 209, 2-(5-(6-(trifluoromethyl)-1H-indazol-4-yl)pyrimidin-2-ylamino)ethanol], for which the concentration for half-maximal inhibition (IC50) in test [1] was 6.31 nM; in test [2] it was 79.4 nM.
On the same counts, the results for `Oc1ncccc1-c1cc(C(F)(F)F)cc2[nH]ncc12` [Example 210, 3-(6-(trifluoromethyl)-1H-indazol-4-yl)pyridin-2-ol] are 12.6 nM and 631 nM.
For `Cc1ccc(-c2cc(C(F)(F)F)cc3[nH]ncc23)c(N)n1` [Example 211, 6-methyl-3-(6-(trifluoromethyl)-1H-indazol-4-yl)pyridin-2-amine], the IC50 is 6.31 nM in test [1] and 25.1 nM in test [2].
With `N#Cc1cnc(N)c(-c2cc(C(F)(F)F)cc3[nH]ncc23)c1` [Example 212, 6-amino-5-(6-(trifluoromethyl)-1H-indazol-4-yl)nicotinonitrile], the results for the concentration for half-maximal inhibition (IC50) in test [1] and in test [2] were 10 nM and 200 nM, respectively.
On to `COc1cccnc1-c1cc(C(F)(F)F)cc2[nH]ncc12` [Example 213, 4-(3-methoxypyridin-2-yl)-6-(trifluoromethyl)-1H-indazole], for which the IC50 was 79.4 nM in test [1] and 631 nM in test [2].
`Oc1cccnc1-c1cc(C(F)(F)F)cc2[nH]ncc12` [Example 214, 2-(6-(trifluoromethyl)-1H-indazol-4-yl)pyridin-3-ol]: the figures for the 50% inhibitory concentration (IC50) in test [1] and in test [2] were 15.8 nM and 501 nM, respectively.
Regarding `Cc1ccc(-c2cc(C(F)(F)F)cc3[nH]ncc23)c(C)n1` [Example 215, 4-(2,6-dimethylpyridin-3-yl)-6-(trifluoromethyl)-1H-indazole], the values for the IC50 in test [1] and in test [2] were 7.94 nM and 50.1 nM, respectively.
As for `Nc1cc(Cl)cnc1-c1cc(C(F)(F)F)cc2[nH]ncc12` [Example 216, 5-chloro-2-(6-(trifluoromethyl)-1H-indazol-4-yl)pyridin-3-amine], the IC50 in test [1] was 10 nM; in test [2] it was 398 nM.
With `FC(F)(F)c1cc(-c2cnc(-n3ccnc3)nc2)c2cn[nH]c2c1` [Example 217, 4-(2-(1H-imidazol-1-yl)pyrimidin-5-yl)-6-(trifluoromethyl)-1H-indazole], the results for the concentration for half-maximal inhibition (IC50) in test [1] and in test [2] were 10 nM and 158 nM, respectively.
The corresponding values for `CC(=O)Nc1cccnc1-c1cc(C(F)(F)F)cc2[nH]ncc12` [Example 218, N-(2-(6-(trifluoromethyl)-1H-indazol-4-yl)pyridin-3-yl)acetamide] are 251 nM and 2000 nM.
